Results taken from paper PMC12538275, “Fat or flat? The impact of dipole moment vectors on non-covalent interactions between aromatic tags and macromolecules” (Inorganic Chemistry Frontiers, 2025).

Columns and labels:
SmCB1 [1] = target: SmCB1 (Schistosoma mansoni, UniProt Q8MNY2, T185A/T300A); test: biochemical; settings: for Ki SmCB1: kinetic activity assay, triplicate, pH 5.5, 37 °C
Source text: (§1) Enzymatic activity was monitored either fluorometrically with peptide–AMC substrates, which release 7-amino-4-methylcoumarin (AMC) as a fluorescent product, or spectrophotometrically with peptide–pNA substrates, which liberate p-nitroaniline (pNA). Reaction rates were obtained from the slopes of the linear progress curves and expressed as relative fluorescence units per second (RFU s^−1) or as absorbance units per second (AU s^−1). […] The standard errors of measurements refer to the non-linear regression analysis.
(§2) A non-glycosylated mutant of the SmCB1 zymogen was expressed in the yeast Pichia pastoris, activated by S. mansoni legumain and purified as described previously.[25,43,58] Kinetic measurements were performed in triplicate in 96-well microplates (100 μL assay volume) at 37 °C. […] Substrate hydrolysis was measured fluorometrically in an Infinite M1000 microplate reader (Tecan) at excitation and emission wavelengths of 360 and 465 nm, respectively. Inhibition assays for human cathepsins and cruzain are described in Supplemental Experimental Procedures.

human cathepsin B = target: T1, human cathepsin B (Homo sapiens, UniProt P07858); test: Cathepsin B inhibition assay with chromogenic substrate Cbz-Arg-Arg-pNA; type: biochemical; settings: kinetic activity assay; for Ki: read-out: Ki Cat B
T1 construct: purchased Calbiochem
Source text: as §1
(§3) Enzymatic Assay Materials
(§4) Human cathepsin B was purchased from Calbiochem, and human cathepsins K, L, and S from Enzo. […]
(§5) Stock solutions of the […]
inhibitors and substrates were prepared in DMSO.
Cathepsin B Inhibition Assay
Kinetic measurements were performed in duplicate in cuvettes (1 mL assay volume) at 37 °C, as described.18-20 Human cathepsin B was activated by a 1:500 dilution with assay buffer (100 mM sodium phosphate, pH 6.0, 100 mM NaCl, 5 mM EDTA, 0.01% Brij 35) containing 5 mM DTT and then incubated at 37 °C for 30 min.
Into a cuvette containing 960 µL assay buffer, 5 µL of the chromogenic substrate Cbz-Arg-Arg-pNA, DMSO and inhibitor solution (15 µL) were pipetted. After addition of cathepsin B (20 µL), substrate hydrolysis was measured spectrophotometrically in a VARIAN/Bio-50/100 photometer at 405 nm for 20 min. […]

cruzain = target: T2, cruzain (Trypanosoma cruzi, UniProt P25779); test: Cruzain inhibition assay; type: biochemical; settings: duplicate measurements
T2 construct: Recombinant cruzain, consisting of the catalytic domain without the C-terminal extension; made in house
T2 sequence (P25779 123-337 limits assumed): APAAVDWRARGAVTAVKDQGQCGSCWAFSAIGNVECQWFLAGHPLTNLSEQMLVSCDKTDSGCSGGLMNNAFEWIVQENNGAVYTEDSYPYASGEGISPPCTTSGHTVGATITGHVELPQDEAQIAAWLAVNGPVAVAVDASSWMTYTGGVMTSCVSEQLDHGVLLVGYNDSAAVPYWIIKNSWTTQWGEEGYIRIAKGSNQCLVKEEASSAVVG
Source text: as §1
Enzymatic Assay Materials […]
Recombinant cruzain, consisting of the catalytic domain without the C-terminal extension, was expressed and purified as described previously.16,17 All substrates were purchased from Bachem. Stock solutions of the inhibitors and substrates were prepared in DMSO. […]
Kinetic measurements were performed in duplicate with a fluorometric assay (Biotek SynergyTM HT) using Corning 96-well black microplates (200 µL assay volume) at 25 °C. Recombinant cruzain was incubated in 100 mM sodium acetate, pH 5.5, 5 mM DTT, 0.01 % Triton X-100 for 20 min, followed by an additional 2 min incubation with inhibitors before the reaction was started by the addition of the fluorogenic substrate Cbz-Phe-Arg-AMC. Substrate hydrolysis was measured for 5 min fluorometrically at excitation and emission wavelengths of 360 and 460 nm, respectively. […]

human cathepsin K = target: T3, human cathepsin K (Homo sapiens, UniProt P43235); test: Cathepsin K inhibition assay; type: biochemical; settings: duplicate measurements; read-out: Ki cat K
T3 construct: purchased Enzo
T3 sequence (P43235 115-329): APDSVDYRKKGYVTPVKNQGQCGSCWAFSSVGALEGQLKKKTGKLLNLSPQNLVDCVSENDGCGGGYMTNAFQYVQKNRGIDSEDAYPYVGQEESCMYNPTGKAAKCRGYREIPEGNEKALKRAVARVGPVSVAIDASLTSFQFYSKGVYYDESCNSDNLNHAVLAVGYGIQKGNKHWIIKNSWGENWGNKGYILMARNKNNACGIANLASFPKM
Source text: as §1, §3, §4, §5
inhibitors and substrates were prepared in DMSO. […]
Cathepsin K Inhibition Assay
Kinetic measurements were performed in duplicate in 96-well microplates (100 µL assay volume) at 25 °C, as described.18-20 Human recombinant cathepsin K was activated by a 1:100 dilution with assay buffer (100 mM sodium citrate, pH 5.0, 100 mM NaCl, 1 mM EDTA, 0.01% CHAPS) containing 5 mM DTT, and then incubated at 37 °C for 30 min. […] After addition of cathepsin K (2 µL), substrate hydrolysis was measured for 20 min fluorometrically in a FLUOSTAR Optima plate reader at excitation and emission wavelengths of 360 and 440 nm, respectively. […]

human cathepsin L = target: T4, human cathepsin L (Homo sapiens, UniProt P07711); test: Cathepsin L inhibition assay; type: biochemical; settings: duplicate measurements; read-out: Ki cat L
T4 construct: Human isolated cathepsin L; purchased Enzo
T4 sequence (P07711 114-333): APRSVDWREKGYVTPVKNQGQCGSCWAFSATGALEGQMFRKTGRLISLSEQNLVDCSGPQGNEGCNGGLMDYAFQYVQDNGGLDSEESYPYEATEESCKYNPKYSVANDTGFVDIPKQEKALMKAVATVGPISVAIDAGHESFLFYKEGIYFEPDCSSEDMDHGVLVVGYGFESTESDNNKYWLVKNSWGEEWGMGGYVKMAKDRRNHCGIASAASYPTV
Method: Cathepsin L Inhibition Assay
Kinetic measurements were performed in duplicate in cuvettes (1 mL assay volume) at 37 °C, as described.18-20 Human isolated cathepsin L was activated by a 1:100 dilution with assay buffer (100 mM sodium phosphate buffer, pH 6.0, 100 mM NaCl, 5 mM EDTA, 0.01% Brij 35) containing 5 mM DTT, and then incubated at 37 °C for 30 min. Into a cuvette containing 940 µL assay buffer, 10 µL of the chromogenic substrate Cbz-Phe-Arg-pNA, DMSO and inhibitor solution (10 µL) were pipetted. After the addition of cathepsin L (40 µL), substrate hydrolysis was measured for 20 min spectrophotometrically in a VARIAN/Bio-50/100 photometer at 405 nm. […]
Arg-AMC, cathepsin S and DMSO were 40 µM (= 0.74 × Km), 42 ng mL-1 and 2%, respectively. […]

human cathepsin S = target: T5, human cathepsin S (Homo sapiens, UniProt P25774); test: Cathepsin S inhibition assay; type: biochemical; settings: duplicate measurements; read-out: Ki cat S
T5 construct: purchased Enzo
T5 sequence (P25774 115-331): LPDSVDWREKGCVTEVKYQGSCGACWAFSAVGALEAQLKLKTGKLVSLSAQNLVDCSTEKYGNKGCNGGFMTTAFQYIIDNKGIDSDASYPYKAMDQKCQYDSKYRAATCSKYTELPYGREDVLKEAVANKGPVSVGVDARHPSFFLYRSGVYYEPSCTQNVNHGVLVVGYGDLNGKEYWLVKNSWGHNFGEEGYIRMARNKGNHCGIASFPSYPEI
Method: Cathepsin S Inhibition Assay
Kinetic measurements were performed in duplicate in 96-well microplates (100 µL assay volume) at 25 °C, as described.18-20 Human recombinant cathepsin S was activated by 1:100 dilution with assay buffer (100 mM sodium citrate, pH 6.0 containing 50 mM NaCl, 2 mM EDTA, 0.01% Triton X-100) containing 5 mM DTT, and then incubated at 37 °C for 60 min. Into a well containing 184 µL assay buffer, 0.8 µL of the fluorogenic substrate Cbz-Phe-Arg-AMC, DMSO and inhibitor solution (3.2 µL) were pipetted. After addition of cathepsin S (12 µL), substrate hydrolysis was measured for 20 min fluorometrically on a FLUOSTAR Optima plate reader at excitation and emission wavelengths of 360 and 440 nm, respectively. The final concentrations of Cbz-Phe-Arg-AMC, cathepsin S and DMSO were 40 µM (= 0.74 × Km), 42 ng mL-1 and 2%, respectively. […]

[2] = system: newly transformed schistosomula (NTS) of S. mansoni; test: Phenotypic assay with newly transformed schistosomula (NTS); type: cell-based, Schistosoma mansoni; settings: for Severity score: scale 0 (no effect) to 4 (most severe); for anti-schistosomal effect against NTS (in words): 1 and 10 μM, three days
Method: Newly transformed schistosomula (NTS) of S. mansoni were prepared by mechanically transforming infective larvae (cercariae) as described previously.[47,57] NTS (200–300 parasites) were incubated in flat-bottomed 96-well plates in 200 μL of Basch medium 169[60] containing 5% FBS (ThermoFisher Scientific), 100 U mL^−1 penicillin and 100 μg mL^−1 streptomycin (ThermoFisher Scientific), at 5% CO2 and 37 °C.[61,62] Inhibitors were added at final concentration of 1 or 10 μM,[43,47] and changes in phenotype were observed every 24 h for up to 72 h. A constrained nomenclature of ‘descriptors’[49,57] is used to record the multiple and dynamic changes in movement, shape and translucence that the schistosome parasite is capable of (Fig. S1). These descriptors are then converted into an ordinal ‘severity score’ system from 0 (no effect) to 4 (maximum effect), which allows for the relative comparison of compound effects, as described previously.[63]

SmCB1 [3] = test: biochemical; settings: ratio of Ki values
Source text: as §1, §2

[4] = parameters: method as in doi:10.1135/cccc20011375; settings: cited from earlier work

Molecule | Ki (SmCB1 [1]) [nM] | Ki (human cathepsin B) [nM] | Ki (cruzain) [nM] | Ki (human cathepsin K) [nM] | Ki (human cathepsin L) [nM] | Ki (human cathepsin S) [nM] | Severity score ([2]; 1 μM, 24 h) | Severity score ([2]; 1 μM, 48 h) | Severity score ([2]; 1 μM, 72 h) | Severity score ([2]; 10 μM, 24 h) | Severity score ([2]; 10 μM, 48 h) | Severity score ([2]; 10 μM, 72 h) | anti-schistosomal effect against NTS (in words) [2] | Selectivity Ki (cat B)/Ki (SmCB1) (SmCB1 [3]) | Ki SmCB1 (SmCB1 [1]) | Ki Cat B (human cathepsin B) | dipole moment [4] [D]
CC(C)(C)OC(=O)N[C@@H](Cc1cccc(Cl)c1)C(=O)NC1(C#N)CC1 [compound 4] | 27100 ± 3200 | 15500 ± 1700 | 750 ± 20 | 1850 ± 230 | 250 ± 20 | 96 ± 9 | 0 | 0 | 0 | 0 | 0 | 0 | ineffective | – | – | – | –
N#CC1(NC(=O)[C@H](Cc2cccc(Cl)c2)NC(=O)CSc2ccccc2)CC1 [5a] | 14300 ± 2400 | 6800 ± 500 | 460 ± 10 | 1410 ± 260 | 370 ± 20 | 210 ± 30 | 0 | 0 | 0 | 0 | 0 | 0 | ineffective | 0.5 | – | – | –
closo-1,2-C2B10H12 [compound 1, reference compound] | – | > 100000 | – | – | – | – | 0 | 0 | 0 | 0 | 0 | 0 | ineffective | – | inactive | inactive | 4.5
9-SH-closo-1,2-C2B10H11 [compound 2] | – | 43800 ± 5600 | – | – | – | – | 0 | 0 | 0 | 0 | 0 | 0 | ineffective | – | inactive | weak inhibition | –
9-phenyl ortho-carborane | – | – | – | – | – | – | – | – | – | – | – | – | – | – | – | – | 5.0
